RP-LC retention time data for 80 compounds are collected here from the METLIN SMRT retention time set (Domingo-Almenara et al. 2019).

The data set in a line: gradient 5% acetonitrile 3 min, to 50% in 2 min, to 85% in 15 min, held 3 min, 100 µL/min. To be noted: column: Zorbax Extend-C18 2.1 x 50 mm; eluents: water / acetonitrile, 0.1% formic acid. In short, it runs like this:
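Over 3 months, pure standards in mixtures of ~100 molecules were run by HPLC coupled to a quadrupole time-of-flight mass spectrometer in positive and negative ionization mode. The column was a Zorbax Extend-C18 (2.1 × 50 mm, 1.8 μm) at 100 μL/min, eluted with water and acetonitrile each holding 0.1% formic acid, with 40 μL dead and 900 μL dwell volumes. Retention time was determined from adduct peaks chosen by software and checked manually.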
Turning to `CCOc1ccc(CNC(=O)c2cc(NC(C)=O)cc3nc(C)ccc23)cc1`, the RP-LC retention time stood at 620 s. Turning to `CC(C)COC(=O)NCCc1nc2ccccc2[nH]1`, the RP-LC retention time was determined as 556 s.

`Cc1cnc(C2CN(C(=O)c3ccnn3C)C2)n1CC1CC1` had an RP-LC retention time of 568 s. `Cn1nccc1-c1cccc(-c2noc(-c3ccc(Cl)cc3)n2)c1` had an RP-LC retention time of 1250 s. The compound `COc1ccc(CNC(=O)c2nnc(-c3ccc(S(=O)(=O)N(C)C)cc3)o2)cc1OC` returned an RP-LC retention time of 865 s. Under `O=C(NCc1ccc(N2CCCCC2)cc1)c1cccc2c1CCN2C(=O)C1CC1` stands 634 s.

In turn, `CCn1ccc(C(=O)Nc2ccc(OCc3nnc(-c4ccccc4)o3)cc2)n1` gave an RP-LC retention time of 868 s.

`Cc1cc(C)cc(NC2C=CS(=O)(=O)C2)c1` (stereo not given): the RP-LC retention time worked out at 760 s. The figure for `CN(C1CCCCC1)S(=O)(=O)N1CCCC(C(=O)NCc2ccc3c(c2)OCO3)C1` (stereo not given) is 954 s. For `CCOC(=O)C1CCC(CNC(=O)Nc2cccn3cnnc23)CC1` (stereo not given), the RP-LC retention time came to 654 s. Compound `Cc1noc(C)c1Cc1ccc(C(=O)NCCc2noc(C3CC3)n2)o1` displayed an RP-LC retention time of 745 s. Consider `Cc1ccc(CNC(=O)Cn2c(C)cc(-c3nnc(-c4ccc(F)cc4)o3)c2C)o1`, for which the RP-LC retention time was 919 s. Under `O=S(=O)(NCc1ccc(F)cc1)c1ccccc1-c1nc(-c2ccccc2)no1` stands 1160 s; under `CNCc1cc(-c2ccccc2F)n(S(=O)(=O)c2cccnc2)c1`, 682 s. With `O=C(Nc1ccc(Cl)cc1)Nc1c(-c2ccncc2)nc2ccccn12`, the RP-LC retention time came out at 631 s. Under `COc1cccc2sc(N(C)CC(=O)N3CCn4c3nc3ccccc34)nc12` stands 758 s. The compound `CCCc1noc(-c2cccnc2N2CCCN(Cc3cccc(C(F)(F)F)c3)CC2)n1` had an RP-LC retention time of 785 s. `O=S(=O)(Nc1cc(F)ccc1F)c1c[nH]c2ncccc12` yielded an RP-LC retention time of 715 s.

`COc1ccc(-c2ccnc3nc(-c4ccccc4)nn23)cc1OC`: the RP-LC retention time was 848 s.

Compound `CCOCCCNC(=O)CN1C(=O)CCCc2ccccc21` registered an RP-LC retention time of 681 s.

With `CS(=O)(=O)N(Cc1cccnc1)C1CN(C(=O)c2ccc3ccccc3n2)C1`, the RP-LC retention time is 615 s. Under `COc1ccc(NC(=O)N2C[C@@H]3C[C@H](NS(C)(=O)=O)[C@H]2C3)c(C)c1` stands 652 s; under `O=C(N[C@H]1C[C@@H]2C[C@H]1N(C(=O)c1ccc3c(c1)OCO3)C2)c1ccccc1`, 721 s; under `Cc1ccc(CNC(=O)C2(c3ccc(NC(=O)C4CC4)cc3)CCC2)cc1`, 853 s. The compound `COc1cc2c(cc1OC)C(C(=O)N1CCC(C(N)=O)CC1)C(c1cccs1)N(C)C2=O` (stereo not given) showed an RP-LC retention time of 596 s. Under `O=C(NC1CC1)c1ccc(OCC2CCCN(C(=O)c3ccc(F)c(F)c3)C2)cc1` (stereo not given) stands 820 s; under `COc1ccc(CN2C[C@@H]3C(=O)N(Cc4ccc5c(c4)OCO5)C(=O)[C@@H]3C2)c(OC)c1`, 691 s; under `CCOc1cccc(C2c3[nH]c4ccccc4c3CCN2C(=O)C2CC2)c1` (stereo not given), 1100 s. Under `COc1ccc2[nH]c(I)c(CCNC(C)=O)c2c1` stands 760 s; under `COc1ccc(NC(=O)C2c3cc(OC)c(OC)cc3C(=O)N(C)C2c2cccnc2)c(OC)c1` (stereo not given), 655 s; under `Cc1cc(N2CCN(C(=O)c3ccccc3)CC2)nc(N2CCOCC2)n1`, 612 s. `O=C(Nc1nc(-c2cc([N+](=O)[O-])cs2)cs1)c1coc2ccccc2c1=O` came in with an RP-LC retention time of 1110 s. The figure for `COc1ccccc1NC(=O)C1CCc2nc(N3CCOCC3)ncc2C1` (stereo not given) is 741 s; for `COc1ccc(OCC(=O)N2CCN(c3cc(=O)n(C)c(=O)n3C)CC2)cc1` it is 655 s; for `Cc1cc(-c2csc(S(=O)(=O)N(Cc3ccco3)C3CCCC3)c2)on1` it is 1110 s. Under `CCN(CC)CCNC(C(=O)OCCC(C)C)c1ccccc1` (stereo not given) stands 817 s; under `O=C(CC1CCN(C(=O)c2ccc3oc(-c4ccccc4)nc3c2)CC1)NCc1ccco1`, 793 s. Under `CN1c2cc(Cl)ccc2C(=O)NC12CCN(C(=O)Nc1ccccc1F)CC2` stands 770 s; under `COc1cccc(C(=O)CSc2ccc(NC(=O)c3cccs3)nn2)c1`, 846 s. On to `COc1cccc(-c2noc(Cc3nnc(-c4ccccc4)o3)n2)c1OC`, for which the RP-LC retention time was 894 s. On to `C=CCn1c(=O)c2ccccc2n(Cc2nc(-c3ccc(OC(F)(F)F)cc3)no2)c1=O`, for which the RP-LC retention time came to 1140 s. For the compound `COc1ccc(NC(=O)CSc2nnc3c4sc(N5CCCC5)nc4ncn23)cc1`, the RP-LC retention time was 754 s. The figure for `COC(=O)/C(=C1/OC(=O)C(c2ccccc2)=C1O)c1ccccc1` is 1130 s; for `O=C(c1ccco1)N1CCCn2nc(-c3cccc(Cl)c3)cc2C1` it is 861 s; for `CC1=NS(=O)(=O)N(C)C=C1C(=O)OCc1nc(-c2ccccc2F)no1` it is 895 s. Compound `CCCNC(=O)C1CCCN(c2ccc(SCC(=O)Nc3ccc4c(c3)OCO4)nn2)C1` (stereo not given) gave an RP-LC retention time of 642 s. In turn, `Cc1nnc2c(=O)n(CC(=O)NCc3cccc(F)c3)c3cccnc3n12` returned an RP-LC retention time of 656 s.

The compound `COc1ccc(S(=O)(=O)N2CCCC(C(=O)NCc3cccnc3)C2)cc1C` (stereo not given) returned an RP-LC retention time of 623 s. For `CCOc1ccc(CCNC(=O)c2ccc(-n3cnc(NC(=O)C4CC4)c3)cc2)cc1OCC`, the RP-LC retention time was 748 s. For `CCN(CC)CCOC(=O)C(c1ccccc1)C1CCCCC1` (stereo not given), the RP-LC retention time is 882 s. The compound `CCOC(=O)c1cc(C2CC2)nc2c1c(=O)n(Cc1cccc(F)c1)c(=O)n2C` returned an RP-LC retention time of 1160 s. Turning to `Cc1ccc(-c2ccc(N3CCCC(C(=O)NCC4CCCO4)C3)nn2)cc1C` (stereo not given), the RP-LC retention time stood at 663 s. `Cc1nc([C@@H]2CN(C(=O)C(C)(C)C)C[C@H]2C(N)=O)n[nH]1` gave an RP-LC retention time of 564 s.

`COc1cccc(S(=O)(=O)N2CCN(c3cc(C)nc(NC4CCCCC4)n3)CC2)c1`: the RP-LC retention time came out at 795 s.

With `CN(C)C(=O)CSc1ncnc2sccc12`, the RP-LC retention time was 627 s.

Consider `COc1ccc(NCc2ccc3c(c2)n(C)c(=O)n3C)cc1Cl`, for which the RP-LC retention time was found to be 1150 s. Turning to `Cc1ncoc1C(=O)N1CC(Oc2ccc(-c3nc(-c4ccccc4)no3)cc2)C1`, the RP-LC retention time is 1040 s. Under `Cc1ccnc(NS(=O)(=O)c2ccc(NC(=O)CN3C(=O)CCC3=O)cc2)n1` stands 546 s.

As for `Cc1ccc(C)c(Cn2nc3c(S(=O)(=O)N4CCCCC4)cccn3c2=O)c1`, the RP-LC retention time turned out to be 974 s. `Cc1noc(-c2cccc(OC3CN(C(=O)NC4CCCCC4)C3)c2)n1` returned an RP-LC retention time of 891 s. Regarding `CCC(C)(C)NC(=O)C1CCCN(S(=O)(=O)c2c[nH]c(C(=O)N3CCCCCC3)c2)C1` (stereo not given), the RP-LC retention time was 871 s. Under `Cc1sc(C)c(S(=O)(=O)NC2CCCCC2)c1-c1cc(C(F)(F)F)on1` stands 1200 s; under `Cc1noc(-c2cc(S(=O)(=O)N3CCC(C)CC3)c(C)s2)c1C`, 1160 s. For `CSc1ccc(-c2noc(Cn3c(=O)n(-c4ccc(Cl)cc4)c(=O)c4sccc43)n2)cc1`, the RP-LC retention time worked out at 1100 s. `Cc1ccc(-c2ncc(C(=O)Nc3cc(C)ccc3F)c(-c3ccncc3)n2)cc1`: the RP-LC retention time amounted to 995 s. The figure for `O=C(c1ccc(-c2c(-c3ccc(F)cc3)ncn2C2CCCC2)o1)N1CCN(c2ncccn2)CC1` is 727 s; for `Cc1c(C(=O)N2CCSCC2)cnn1-c1cc(-c2nc(C(C)(C)C)no2)ccn1` it is 1070 s. The figure for `Cc1cc(NC(=O)CSc2ccc3nnc(-c4cccs4)n3n2)no1` is 620 s.

`COCCNC(=O)CCc1nc2ccccc2[nH]c1=O` yielded an RP-LC retention time of 591 s. Under `O=C(Nc1cnc(-c2ccccc2)nc1)c1ccc(Cl)cc1` stands 1050 s; under `O=[N+]([O-])c1cccnc1Oc1cc(Cl)c(Cl)cc1Cl`, 1220 s. Under `CCCn1cc(SCC(=O)Nc2cc(C)on2)c2ccccc21` stands 883 s. The figure for `CCn1ccc(C(=O)Nc2nnc(CSc3ccccc3)o2)n1` is 712 s. `COc1ccccc1N1CCN(C[C@@H](C(=O)NC(C)(C)C)c2ccccc2)CC1` came in with an RP-LC retention time of 812 s. Under `COc1cc(OC)c(NC(=O)Nc2c(-c3cccc(C)c3)nc3ccccn23)cc1Cl` stands 721 s; under `CCCN1CCN(C(=O)CSCc2nc3cccnc3n2C2CCCCC2)CC1`, 638 s. The figure for `CCn1cc(C2=CCN(S(=O)(=O)c3cccc(C)c3)CC2)c2cccnc21` is 1040 s; for `Cc1ccc(N2CCC(NC(=O)c3ccc(C#N)cc3)C2=O)cc1` (stereo not given) it is 798 s; for `O=c1[nH][nH]c2nnc(-c3c(-c4ccccc4)nn4ccccc34)cc12` it is 679 s.

For the compound `CS(=O)(=O)N1CCCNCCNC(=O)CC1c1ccccc1` (stereo not given), the RP-LC retention time was 572 s.
